Measurements as given in US20180362487A1, “STEREOISOMER OF BROMADIOLONE, COMPOSITION AND RODENTICIDAL BAIT COMPRISING SAME, AND PROCESS FOR CONTROLLING TARGET RODENT PESTS” (priority 2015, published 2018).

Format: in vivo, "Sprague-Dawley" SD rats
Conditions: per os tube feeding, about 13 mg bromadiolone per kg (56% D1,2 / 44% D3,4), liver on D1, D3, D7, male and female rats, FIG. 2
Experimental: Separation of the configurational stereoisomers of bromadiolone is performed by high-pressure liquid chromatography (HPLC) on a LUX® Cellulose-1 chiral column (Phenomenex, Le Pecq, France) containing a chiral stationary phase constituted of particles of cellulose tris(3,5-dimethylphenyl carbamate), said particles having a mean size of 3 μm and having a mean pore size of 1000 Å. A mixture formed from acetonitrile (A) and water comprising 0.1% by volume of formic acid (B), with an A/B volume ratio of 80/20 and with a flow rate of 0.25 mL/minute in the chromatography column, is used as mobile phase. The concentration of the composition to be analysed is 1 μg of bromadiolone per millilitre of acetonitrile and the volume injected onto the column is 1 μL. Detection is performed by tandem mass spectrometry (MS/MS) in negative electrospray ionization (ESI) mode. The temperature of the nebulizer gas is 350° C. and its flow rate is 8 L/minute. The pressure of the nebulizer gas is brought to 2700 hPa. In particular, the MRM (“Multiple Reaction Monitoring”) transitions m/z 525.1→250.1 and m/z 525.1→181, corresponding to bromadiolone, are detected.
About 0.525 g (±0.025 g) of rat liver is weighed out accurately and placed in a 50 mL polypropylene tube. 10 mL of acetone are added and the suspension is homogenized using an Ultra-Turrax® homogenizer/disperser for a time of about 30 seconds. […]

O=c1oc2ccccc2c(O)c1C(CC(O)c1ccc(-c2ccc(Br)cc2)cc1)c1ccccc1 (single isomer, unassigned) [diastereoisomer D3,4]
persistence in the liver of the rats (hepatic concentration of the diastereoisomers): less persistent in the liver of target rodents

O=c1oc2ccccc2c(O)c1C(CC(O)c1ccc(-c2ccc(Br)cc2)cc1)c1ccccc1 (single isomer, unassigned) [diastereoisomer D1,2]
persistence in the liver of the rats (hepatic concentration of the diastereoisomers): longer persistence in the liver of the rats than the persistence of said diastereoisomer D3,4
